Laboratory results as given in patent US10329289B2, “6,7-dihydro-5H-pyrrolo[3,4-B]pyridin-5-one allosteric modulators of the M4 muscarinic acetylcholine receptor” (Merck Sharp & Dohme Corp., priority 2015, dated 2019).
pEC50: −log10 of the molar value.

These compounds were tested against T1, human M4 muscarinic acetylcholine receptor (Homo sapiens, UniProt P08173) (assay: human FLIPR-based M4 PAM assay (Ca2+ mobilization, CHO-K1 cells with human M4 receptor and Gαqi5)). Conditions: acetylcholine at 20% of maximum response, read-out: M4 PAM IP.
T1 construct: expressed in transfected cells; host or cells: CHO-K1
T1 sequence (P08173 1-479): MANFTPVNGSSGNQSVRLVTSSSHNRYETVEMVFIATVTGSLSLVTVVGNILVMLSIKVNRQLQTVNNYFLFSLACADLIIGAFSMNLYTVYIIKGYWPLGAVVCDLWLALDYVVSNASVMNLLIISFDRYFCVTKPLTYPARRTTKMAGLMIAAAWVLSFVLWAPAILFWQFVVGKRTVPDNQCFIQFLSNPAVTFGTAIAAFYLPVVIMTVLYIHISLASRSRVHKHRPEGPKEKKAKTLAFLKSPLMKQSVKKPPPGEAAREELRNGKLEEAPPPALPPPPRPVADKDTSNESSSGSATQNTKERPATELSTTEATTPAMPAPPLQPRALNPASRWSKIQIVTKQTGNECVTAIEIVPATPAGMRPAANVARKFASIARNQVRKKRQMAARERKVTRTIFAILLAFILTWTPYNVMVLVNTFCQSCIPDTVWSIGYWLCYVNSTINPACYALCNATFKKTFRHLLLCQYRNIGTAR
Type: cell-based
Method in brief: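 Calcium-mobilization (FLIPR) readout in dye-loaded CHO-K1 cells co-expressing human M4 receptor and Gαqi5. Potentiation measured against acetylcholine at a concentration giving 20% of maximal response, with an optional 70% addition; the reported value is the curve inflection point from a 4-parameter logistic fit.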

**Q.** `COc1ccc(OC2CCN(c3nc4c(cc3C)C(=O)N([C@@H](C)CO)C4)CC2)cn1` (single isomer, unassigned) [Example 264C] was tested. Which pEC50 did it give?
**A.** Its pEC50 is 7.40.

**Q.** `Cc1cc2c(nc1N1CCC(Oc3ccc(F)cc3)CC1)[C@@H](CO)N(C)C2=O` [Example 279, (S)-2-(4-(4-fluorophenoxy)piperidin-1-yl)-7-(hydroxymethyl)-3,6-dimethyl-6,7-dihydro-5H-pyrrolo[3,4-b]pyridin-5-one] was tested. Which pEC50 did it give?
**A.** Its pEC50 is 7.52.

**Q.** How did the pEC50 turn out when `COc1ccc(OC2CCN(c3nc4c(cc3C)C(=O)N(C[C@H](O)C(F)(F)F)C4)CC2)cn1` [Example 319, (S)-2-(4-((6-methoxypyridin-3-yl)oxy)piperidin-1-yl)-3-methyl-6-(3,3,3-trifluoro-2-hydroxypropyl)-6,7-dihydro-5H-pyrrolo[3,4-b] pyridin-5-one] was run?
**A.** Its pEC50 is 7.02.

**Q.** How did the pEC50 turn out when `Cc1cc2c(nc1N1CCC(Oc3cnc4c(c3)oc(=O)n4C)CC1)CNC2=O` [Example 136, 3-methyl-6-((1-(3-methyl-5-oxo-6,7-dihydro-5H-pyrrolo[3,4-b]pyridin-2-yl)piperidin-4-yl)oxy)oxazolo[4,5-b]pyridin-2(3H)-one] was run?
**A.** The pEC50 was 5.46.

**Q.** With `CCc1cc2c(nc1N1CCC(Oc3ccc4c(cnn4C)c3)CC1)[C@@H](CO)N(C)C2=O` [Example 363, (S)-3-ethyl-7-(hydroxymethyl)-6-methyl-2-(4-((1-methyl-1H-indazol-5-yl)oxy)piperidin-1-yl)-6,7-dihydro-5H-pyrrolo[3,4-b]pyridin-5-one] as the compound, how does the pEC50 read?
**A.** The pEC50 was 7.00.

**Q.** With `Cc1c(N2CCC(Oc3ccc4c(c3)COC4)CC2)nc2c(c1C)C(=O)N(CC(=O)O)C2` [Example 266B, 2-(2-(4-((1,3-dihydro-2-benzofuran-5-yl)oxy)piperidin-1-yl)-3,4-dimethyl-5-oxo-5,7-dihydro-6H-pyrrolo[3,4-b]pyridin-6-yl)acetic acid] as the compound, how does the pEC50 read?
**A.** The pEC50 was 7.28.

**Q.** `Cc1cc2c(nc1N1CCC(Oc3cccc(C#N)c3)CC1)CN(CCN(C)C)C2=O` [Example 236, 3-((1-(6-(2-(dimethylamino)ethyl)-3-methyl-5-oxo-6,7-dihydro-5H-pyrrolo[3,4-b]pyridin-2-yl)piperidin-4-yl)oxy)benzonitrile] was tested. Which pEC50 did it give?
**A.** The pEC50 was 6.50.

**Q.** How did the pEC50 turn out when `Cc1c(N2CCC(Oc3ccc4c(c3)CCOC4)CC2)nc2c(c1C)C(=O)NC2` [Example 336, 2-(4-(isochroman-6-yloxy)piperidin-1-yl)-3,4-dimethyl-6,7-dihydro-5H-pyrrolo[3,4-b]pyridin-5-one] was run?
**A.** Its pEC50 is 6.74.

**Q.** With `Cc1ccc(OC2CCN(c3nc4c(cc3C)C(=O)NC4)CC2)cc1F` [Example 134, 2-(4-(3-fluoro-4-methylphenoxy)piperidin-1-yl)-3-methyl-6,7-dihydro-5H-pyrrolo[3,4-b]pyridin-5-one] as the compound, how does the pEC50 read?
**A.** Its pEC50 is 6.78.

**Q.** `Cc1cc2c(nc1N1CCC(Oc3ccc(OCC(C)(C)N)nc3)CC1)CNC2=O` [Example 169, 2-(4-((6-(2-amino-2-methylpropoxy)pyridin-3-yl)oxy)piperidin-1-yl)-3-methyl-6,7-dihydro-5H-pyrrolo[3,4-b]pyridin-5-one] was tested. Which pEC50 did it give?
**A.** Its pEC50 is 6.74.

**Q.** With `Cc1cc2c(nc1N1CCC(Oc3ccc4c(c3)CCC4)CC1)CNC2=O` [Example 44, 2-(4-((2,3-dihydro-1H-inden-5-yl)oxy)piperidin-1-yl)-3-methyl-6,7-dihydro-5H-pyrrolo[3,4-b]pyridin-5-one] as the compound, how does the pEC50 read?
**A.** Its pEC50 is 6.89.

**Q.** `CCn1cc(OC2CCN(c3nc4c(cc3C)C(=O)NC4)CC2)cn1` [Example 169A, 2-(4-((1-ethyl-1H-pyrazol-4-yl)oxy)piperidin-1-yl)-3-methyl-6,7-dihydro-5H-pyrrolo[3,4-b]pyridin-5-one] was tested. Which pEC50 did it give?
**A.** Its pEC50 is 6.74.

**Q.** `Cc1cc2c(nc1N1CC[C@@H](Oc3ccc4c(c3)COC4)[C@@H](F)C1)CN(CCO)C2=O` [Example 255, 2-((3S,4R)-4-((1,3-dihydro-2-benzofuran-5-yl)oxy)-3-fluoropiperidin-1-yl)-6-(2-hydroxyethyl)-3-methyl-6,7-dihydro-5H-pyrrolo[3,4-b]pyridin-5-one] was tested. Which pEC50 did it give?
**A.** Its pEC50 is 7.54.

**Q.** How did the pEC50 turn out when `Cc1cc2c(nc1N1CCC(Oc3ccccc3)CC1)[C@@H](CO)N(C)C2=O` [Example 276, (S)-7-(hydroxymethyl)-3,6-dimethyl-2-(4-phenoxypiperidin-1-yl)-6,7-dihydro-5H-pyrrolo[3,4-b]pyridin-5-one] was run?
**A.** The pEC50 was 6.84.

**Q.** How did the pEC50 turn out when `Cc1cc2c(nc1N1CCC(OCC3(C)CC3)CC1)CNC2=O` [Example 176, 3-methyl-2-(4-((1-methylcyclopropyl)meth-oxy)piperidin-1-yl)-6,7-dihydro-5H-pyrrolo[3,4-b]pyridin-5-one] was run?
**A.** Its pEC50 is 7.41.

**Q.** `Cc1cc2c(nc1N1CC[C@H](Oc3ccc4c(cnn4C)c3)[C@@H](F)C1)CNC2=O` [Example 24, 2-((3S,4S)-3-fluoro-4-((1-methyl-1H-indazol-5-yl)oxy)piperidin-1-yl)-3-methyl-6,7-dihydro-5H-pyrrolo[3,4-b]pyridin-5-one] was tested. Which pEC50 did it give?
**A.** Its pEC50 is 6.78.

**Q.** How did the pEC50 turn out when `CCc1cc2c(nc1N1CCC(Oc3ccc4c(c3)COC4)CC1)CNC2=O` [Example 213, 2-(4-((1,3-dihydro-2-benzofuran-5-yl)oxy)piperidin-1-yl)-3-ethyl-6,7-dihydro-5H-pyrrolo[3,4-b]pyridin-5-one] was run?
**A.** Its pEC50 is 7.21.

**Q.** How did the pEC50 turn out when `Cc1cc2c(nc1N1CCC(Oc3ccc(F)c(F)c3)CC1)CNC2=O` [Example 81, 2-(4-(3,4-difluorophenoxy)piperi-din-1-yl)-3-methyl-6,7-dihydro-5H-pyrrolo[3,4-b]pyridin-5-one] was run?
**A.** The pEC50 was 7.43.

**Q.** With `Cc1cc2c(nc1N1CCC(Oc3ccc4c(c3)COCC4)CC1)[C@@H](CO)N(C)C2=O` [Example 349, (S)-7-(hydroxymethyl)-2-(4-(isochroman-7-yloxy)piperidin-1-yl)-3,6-dimethyl-6,7-dihydro-5H-pyrrolo[3,4-b]pyridin-5-one] as the compound, how does the pEC50 read?
**A.** The pEC50 was 7.66.

**Q.** How did the pEC50 turn out when `COc1ccc(OC2CCN(c3nc4c(cc3C)C(=O)NC4)CC2)cn1` [Example 1, 2-(4-((6-methoxypyridin-3-yl)oxy)piperidin-1-yl)-3-methyl-6,7-dihydro-5H-pyrrolo[3,4-b]pyridin-5-one] was run?
**A.** The pEC50 was 7.57.

**Q.** `CCc1cc2c(nc1N1CCC(Oc3ccc4c(c3)OCC4)CC1)[C@H](CO)N(C)C2=O` [Example 366, (R)-2-(4-((2,3-dihydrobenzofuran-6-yl)oxy)piperidin-1-yl)-3-ethyl-7-(hydroxymethyl)-6-methyl-6,7-dihydro-5H-pyrrolo[3,4-b]pyridin-5-one] was tested. Which pEC50 did it give?
**A.** The pEC50 was 5.91.

**Q.** How did the pEC50 turn out when `Cc1cc2c(nc1N1CCC(OCC3(CO)CC3)CC1)CNC2=O` [Example 312, 2-(4-((1-(hydroxymethyl)cyclopropyl)methoxy)piperidin-1-yl)-3-methyl-6,7-dihydro-5H-pyrrolo[3,4-b]pyridin-5-one] was run?
**A.** The pEC50 was 6.19.

**Q.** With `Cc1cc2c(nc1N1CC[C@@H](Oc3ccc(F)cc3)[C@@H](F)C1)CNC2=O` [Example 196, 2-((3S,4R)-3-fluoro-4-(4-fluorophenoxy)piperidin-1-yl)-3-methyl-6,7-dihydro-5H-pyrrolo[3,4-b]pyridin-5-one] as the compound, how does the pEC50 read?
**A.** Its pEC50 is 7.66.

**Q.** With `Cc1cc2c(nc1N1CCC(Oc3ccc(OCCN4CCC4)nc3)CC1)CNC2=O` [Example 173, 2-(4-((6-(2-(azetidin-1-yl)ethoxy)pyridin-3-yl)oxy)piperidin-1-yl)-3-methyl-6,7-dihydro-5H-pyrrolo[3,4-b]pyridin-5-one] as the compound, how does the pEC50 read?
**A.** Its pEC50 is 6.50.

**Q.** With `Cc1c(N2CC[C@@H](Oc3cnn(C)c3)C(F)(F)C2)nc2c(c1C)C(=O)NC2` [Example 336B, (R)-2-(3,3-difluoro-4-((1-methyl-1H-pyrazol-4-yl)oxy)piperidin-1-yl)-3,4-dimethyl-6,7-dihydro-5H-pyrrolo[3,4-b]pyridin-5-one] as the compound, how does the pEC50 read?
**A.** The pEC50 was 6.19.
